# Reference: article PMC7248880, “Preclinical Incorporation Dosimetry of [^18F]FACH—A Novel ^18F-Labeled MCT1/MCT4 Lactate Transporter Inhibitor for Imaging Cancer Metabolism with PET” (Molecules, 2020)
# Assay: Preclinical incorporation dosimetry: whole-body PET/CT in piglets, scaled to human, OLINDA 2.1, ICRP103
# Type: in vivo, juvenile pigs
# Protocol: Three piglets (age: ~6 weeks, weight: ~13–15 kg) were fasted on the day of imaging and received an intranuscular. injection of 1 mL azaperone and 4 mL ketamine to introduce anesthesia. […] During narcosis, the animals maintained spontaneous respiration and no mandatory ventilation was applied. The subjects were sequentially imaged after an iv injection (contralateral ear vein) of 156 ± 54 MBq [^18F]FACH (0.63 ± 0.49 µg) in a PET/CT system (Biograph16, SIEMENS, Erlangen, Germany). The piglets were positioned prone with legs alongside the body on a custom-made plastic trough including a piglet head-holder (Figure 5). The PET acquisition was divided into a sequential (4 × 9 min, 3 × 12 min) and a static part (1 × 24 min, 1 × 30 min, 1 × 36 min), each of which was preceded by a low-dose CT to acquire structural data for attenuation correction (AC) and anatomical orientation (Figure 6). Post mortem, the urine was collected by bladder punctuation, weighted, and divided into three 1 mL samples for activity measurements in a gamma-counter (Packard Cobra II 5003 Auto Gamma Counting System, GMI, Ramsey, MN, USA).
# PET data reconstruction was done using low-dose CT attenuation correction (AC) and an iterative OSEM algorithm with 4 iterations and 8 subsets. As the PET/CT system is in daily clinical use, it is periodically subjected to detector normalization and activity calibration. Furthermore, all peripheral activity-measuring devices to be used for the investigation (dose calibrator, gamma counter) are cross-calibrated in terms of timing and a radioactivity adjustment.
# The image data were analyzed with ROVER (ABX, Radeberg, Germany; v. 3.0.46h). The organs were identified and manually delineated using 3D volumes of interest (VOI). The CT data were used for anatomical orientation and for image registration with the PET data. Relevant source organs like brain, gall bladder, large intestine, small intestine, stomach, heart, kidneys, liver, lungs, pancreas, red marrow (backbone, pelvis, sternum), spleen, thyroid, testes, skeleton (bone), and the urinary bladder were delineated and the time–activity data transformed into percentage of injected dose (%IDorgan) with Equation (2). (2) %IDorgant=Aorgant×cscant/A0t [%] where Aorgant is the activity in the organ at the time t; cscant is a calibration factor representing the theoretical body activity (derived from a whole body mask of a volume that equals the body dimentions of the animal) decay corrected to t and divided by the imaged body activity in each image frame at the time t, and A0t is the injected activity decay corrected to t0.
# The dose calculation has been described by our group in detail before. Briefly, due to differences in weight, size, and metabolic rates between the animal species and the human volunteers, it is necessary to map the preclinical extracted biodistribution data to human circumstances. Thus, the animal biokinetic data (time scale and %ID values) were adapted to the human circumstances according to [22] to fit the human weight, size, and metabolic rates (Equations (3) and (4)). (3) thuman=tanimal[mhuman/manimal]^0.25 (4) [%ID]/organhuman=[%ID]/ganimal×mTBanimal[g]/mTBhuman[g]×morganhuman[g]
# The TIACs were estimated by exponential fitting and the dosimetry estimation was performed using OLINDA/EXM software (v. 2.1). Finally, organ doses (OD) were estimated and multiplied by tissue weighting factors as published in ICRP103 [20].
# [1] = mean of three piglets, ICRP103 wT
# [2] = mean of three piglets, adult male model
# [3] = mean ± SD, three piglets, ICRP103 wT
smiles,measurement,setting,value
"CCCN(CCC[18F])c1ccc(/C=C(\C#N)C(=O)O)c(OC)c1 [[^18F]FACH, (E)-2-cyano-3-{4-[(3-[^18F]fluoropropyl)(propyl)amino]-2-methoxyphenyl}acrylic acid]","Effective dose contribution HT wT, Heart Wall",FACHpig3,8.18E-05 mSv/MBq
same,"Effective dose contribution HT wT, Kidneys",FACHpig3,2.59E-04 mSv/MBq
same,"Effective dose contribution HT wT, Left colon",FACHpig3,5.06E-04 mSv/MBq
same,"Effective dose contribution HT wT, Liver",FACHpig3,1.37E-03 mSv/MBq
same,"Effective dose contribution HT wT, Lungs",FACHpig3,9.15E-04 mSv/MBq
same,"Effective dose contribution HT wT, Osteogenic Cells",FACHpig3,2.03E-04 mSv/MBq
same,"Effective dose contribution HT wT, Pancreas",FACHpig3,7.24E-05 mSv/MBq
same,"Effective dose contribution HT wT, Prostate",FACHpig3,5.95E-05 mSv/MBq
same,"Effective dose contribution HT wT, Rectum",FACHpig3,2.92E-04 mSv/MBq
same,"Effective dose contribution HT wT, Red Marrow",FACHpig3,1.47E-03 mSv/MBq
same,"Effective dose contribution HT wT, Right colon",FACHpig3,9.75E-04 mSv/MBq
same,"Effective dose contribution HT wT, Salivary Glands",FACHpig3,6.33E-05 mSv/MBq
same,"Effective dose contribution HT wT, Small Intestine",FACHpig3,9.09E-05 mSv/MBq
same,"Effective dose contribution HT wT, Spleen",FACHpig3,7.43E-05 mSv/MBq
same,"Effective dose contribution HT wT, Stomach Wall",FACHpig3,9.98E-04 mSv/MBq
same,"Effective dose contribution HT wT, Testes",FACHpig3,2.90E-04 mSv/MBq
same,"Effective dose contribution HT wT, Thymus",FACHpig3,6.50E-05 mSv/MBq
same,"Effective dose contribution HT wT, Thyroid",FACHpig3,2.77E-04 mSv/MBq
same,"Effective dose contribution HT wT, Total Body",FACHpig3,0.00E+00 mSv/MBq
same,"Effective dose contribution HT wT, Urinary Bladder Wall",FACHpig3,3.52E-03 mSv/MBq
same,"Organ equivalent dose HT, Adrenals",FACHpig3,1.47E-02 mSv/MBq
same,"Organ equivalent dose HT, Brain",FACHpig3,4.10E-03 mSv/MBq
same,"Organ equivalent dose HT, Esophagus",FACHpig3,8.11E-03 mSv/MBq
same,"Organ equivalent dose HT, Eyes",FACHpig3,5.63E-03 mSv/MBq
same,"Organ equivalent dose HT, Gallbladder Wall",FACHpig3,8.72E-02 mSv/MBq
same,"Organ equivalent dose HT, Heart Wall",FACHpig3,8.86E-03 mSv/MBq
same,"Organ equivalent dose HT, Kidneys",FACHpig3,2.81E-02 mSv/MBq
same,"Organ equivalent dose HT, Left colon",FACHpig3,1.04E-02 mSv/MBq
same,"Organ equivalent dose HT, Liver",FACHpig3,3.42E-02 mSv/MBq
same,"Organ equivalent dose HT, Lungs",FACHpig3,7.62E-03 mSv/MBq
same,"Organ equivalent dose HT, Osteogenic Cells",FACHpig3,2.03E-02 mSv/MBq
same,"Organ equivalent dose HT, Pancreas",FACHpig3,7.85E-03 mSv/MBq
same,"Organ equivalent dose HT, Prostate",FACHpig3,1.29E-02 mSv/MBq
same,"Organ equivalent dose HT, Rectum",FACHpig3,1.27E-02 mSv/MBq
same,"Organ equivalent dose HT, Red Marrow",FACHpig3,1.22E-02 mSv/MBq
same,"Organ equivalent dose HT, Right colon",FACHpig3,2.01E-02 mSv/MBq
same,"Organ equivalent dose HT, Salivary Glands",FACHpig3,6.33E-03 mSv/MBq
same,"Organ equivalent dose HT, Small Intestine",FACHpig3,9.84E-03 mSv/MBq
same,"Organ equivalent dose HT, Spleen",FACHpig3,8.05E-03 mSv/MBq
same,"Organ equivalent dose HT, Stomach Wall",FACHpig3,8.32E-03 mSv/MBq
same,"Organ equivalent dose HT, Testes",FACHpig3,7.26E-03 mSv/MBq
same,"Organ equivalent dose HT, Thymus",FACHpig3,7.04E-03 mSv/MBq
same,"Organ equivalent dose HT, Thyroid",FACHpig3,6.93E-03 mSv/MBq
same,"Organ equivalent dose HT, Total Body",FACHpig3,8.63E-03 mSv/MBq
same,"Organ equivalent dose HT, Urinary Bladder Wall",FACHpig3,8.80E-02 mSv/MBq
same,"ED Contr., Adrenals",[1],1.31 × 10^−4 mSv/MBq
same,"ED Contr., Brain",[1],4.69 × 10^−5 mSv/MBq
same,"ED Contr., Esophagus",[1],3.61 × 10^−4 mSv/MBq
same,"ED Contr., Eyes",[1],0.00 mSv/MBq
same,"ED Contr., Gall Bladder Wall",[1],4.65 × 10^−4 mSv/MBq
same,"ED Contr., Heart Wall",[1],8.72 × 10^−5 mSv/MBq
same,"ED Contr., Kidneys",[1],2.42 × 10^−4 mSv/MBq
same,"ED Contr., Left Colon",[1],6.63 × 10^−4 mSv/MBq
same,"ED Contr., Liver",[1],9.34 × 10^−4 mSv/MBq
same,"ED Contr., Lungs",[1],9.46 × 10^−4 mSv/MBq
same,"ED Contr., Osteogenic Cells",[1],2.12 × 10^−4 mSv/MBq
same,"ED Contr., Pancreas",[1],2.81 × 10^−4 mSv/MBq
same,"ED Contr., Prostate",[1],6.01 × 10^−5 mSv/MBq
same,"ED Contr., Rectum",[1],3.18 × 10^−4 mSv/MBq
same,"ED Contr., Red Marrow",[1],1.67 × 10^−3 mSv/MBq
same,"ED Contr., Right Colon",[1],1.16 × 10^−3 mSv/MBq
same,"ED Contr., Salivary Glands",[1],7.90 × 10^−5 mSv/MBq
same,"ED Contr., Small Intestine",[1],1.71 × 10^−4 mSv/MBq
same,"ED Contr., Spleen",[1],8.37 × 10^−5 mSv/MBq
same,"ED Contr., Stomach Wall",[1],1.31 × 10^−3 mSv/MBq
same,"ED Contr., Testes",[1],3.38 × 10^−4 mSv/MBq
same,"ED Contr., Thymus",[1],7.69 × 10^−5 mSv/MBq
same,"ED Contr., Thyroid",[1],2.83 × 10^−4 mSv/MBq
same,"ED Contr., Total Body",[1],0.00 mSv/MBq
same,"ED Contr., Urinary Bladder Wall",[1],2.50 × 10^−3 mSv/MBq
same,"OD, Adrenals",[2],1.42 × 10^−2 mSv/MBq
same,"OD, Brain",[2],4.69 × 10^−3 mSv/MBq
same,"OD, Esophagus",[2],9.03 × 10^−3 mSv/MBq
same,"OD, Eyes",[2],6.91 × 10^−3 mSv/MBq
same,"OD, Gall Bladder Wall",[2],5.04 × 10^−2 mSv/MBq
same,"OD, Heart Wall",[2],9.46× 10^−3 mSv/MBq
same,"OD, Kidneys",[2],2.62 × 10^−2 mSv/MBq
same,"OD, Left Colon",[2],1.37 × 10^−2 mSv/MBq
same,"OD, Liver",[2],2.33 × 10^−2 mSv/MBq
same,"OD, Lungs",[2],7.88 × 10^−3 mSv/MBq
same,"OD, Osteogenic Cells",[2],2.12 × 10^−2 mSv/MBq
same,"OD, Pancreas",[2],3.05 × 10^−2 mSv/MBq
same,"OD, Prostate",[2],1.30 × 10^−2 mSv/MBq
same,"OD, Rectum",[2],1.38 × 10^−2 mSv/MBq
same,"OD, Red Marrow",[2],1.39 × 10^−2 mSv/MBq
same,"OD, Right Colon",[2],2.40 × 10^−2 mSv/MBq
same,"OD, Salivary Glands",[2],7.90 × 10^−3 mSv/MBq
same,"OD, Small Intestine",[2],1.84 × 10^−2 mSv/MBq
same,"OD, Spleen",[2],9.08 × 10^−3 mSv/MBq
same,"OD, Stomach Wall",[2],1.09 × 10^−2 mSv/MBq
same,"OD, Testes",[2],8.45 × 10^−3 mSv/MBq
same,"OD, Thymus",[2],8.33 × 10^−3 mSv/MBq
same,"OD, Thyroid",[2],7.08 × 10^−3 mSv/MBq
same,"OD, Total Body",[2],9.76 × 10^−3 mSv/MBq
same,"OD, Urinary Bladder Wall",[2],6.26 × 10^−2 mSv/MBq
same,"organ dose, gall bladder","mean ± SD, three piglets",50.4 ± 37.5 µSv/MBq
same,"organ dose, kidneys","mean ± SD, three piglets",26.2 ± 2.2 µSv/MBq
same,"organ dose, liver","mean ± SD, three piglets",23.3 ± 13.6 µSv/MBq
same,"organ dose, pancreas","mean ± SD, three piglets",30.5 ± 27.3 µSv/MBq
same,"organ dose, right colon","mean ± SD, three piglets",24.0 ± 7.4 µSv/MBq
same,"organ dose, urinary bladder","mean ± SD, three piglets",62.6 ± 28.9 µSv/MBq
same,"contribution to the ED, lungs",[3],0.9 ± 0.05 µSv/MBq
same,"contribution to the ED, red marrow",[3],1.7 ± 0.3 µSv/MBq
same,"contribution to the ED, right colon",[3],1.2 ± 0.4 µSv/MBq
same,"contribution to the ED, stomach",[3],1.3 ± 0.4 µSv/MBq
same,"contribution to the ED, urinary bladder",[3],2.5 ± 1.1 µSv/MBq
same,"ED to humans, preclinical","piglet biokinetic data, ICRP103 wT",12.4 µSv/MBq
same,"ED to humans, corrected","~300 MBq iv, corrected for up to 40% underestimation",about 6.2 mSv
